In patent publication US8372799B2, “Reverse protein” (Apeptico Forschung und Entwicklung GmbH, priority 2007, dated 2013):
Where a SMILES comes first, the peptide text is derived from it. Bridges are numbered along the chain shown (N, C = ends).

target: T1, epithelial sodium channels (Homo sapiens, UniProt P37088+P51168+P51170); experiment: Patch-clamp activation of sodium ion channels in A549 cells; format: cell-based; settings: whole cell / cell-attached, amiloride-sensitive sodium current
T1 construct: endogenous in cells; host or cells: A549 human lung epithelial cells (ATCC CCL-185)
T1 sequence (P37088 1-669): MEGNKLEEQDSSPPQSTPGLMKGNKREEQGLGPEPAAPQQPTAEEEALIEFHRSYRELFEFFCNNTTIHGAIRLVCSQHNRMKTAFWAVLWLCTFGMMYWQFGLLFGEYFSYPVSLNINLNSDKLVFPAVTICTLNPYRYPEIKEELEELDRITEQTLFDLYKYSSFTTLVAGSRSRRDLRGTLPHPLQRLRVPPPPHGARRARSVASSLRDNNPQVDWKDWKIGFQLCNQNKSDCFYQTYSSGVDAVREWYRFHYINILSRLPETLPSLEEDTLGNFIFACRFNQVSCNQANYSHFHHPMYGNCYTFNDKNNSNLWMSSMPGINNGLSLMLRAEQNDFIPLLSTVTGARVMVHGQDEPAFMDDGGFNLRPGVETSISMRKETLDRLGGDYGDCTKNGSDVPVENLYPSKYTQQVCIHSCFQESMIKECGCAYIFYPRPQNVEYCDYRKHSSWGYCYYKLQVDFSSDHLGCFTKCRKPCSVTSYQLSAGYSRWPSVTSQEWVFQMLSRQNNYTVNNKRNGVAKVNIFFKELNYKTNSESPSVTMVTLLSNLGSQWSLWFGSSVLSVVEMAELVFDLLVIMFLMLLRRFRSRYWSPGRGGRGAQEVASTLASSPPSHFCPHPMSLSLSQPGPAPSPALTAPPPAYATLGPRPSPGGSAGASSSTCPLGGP
T1 sequence (P51168 1-640): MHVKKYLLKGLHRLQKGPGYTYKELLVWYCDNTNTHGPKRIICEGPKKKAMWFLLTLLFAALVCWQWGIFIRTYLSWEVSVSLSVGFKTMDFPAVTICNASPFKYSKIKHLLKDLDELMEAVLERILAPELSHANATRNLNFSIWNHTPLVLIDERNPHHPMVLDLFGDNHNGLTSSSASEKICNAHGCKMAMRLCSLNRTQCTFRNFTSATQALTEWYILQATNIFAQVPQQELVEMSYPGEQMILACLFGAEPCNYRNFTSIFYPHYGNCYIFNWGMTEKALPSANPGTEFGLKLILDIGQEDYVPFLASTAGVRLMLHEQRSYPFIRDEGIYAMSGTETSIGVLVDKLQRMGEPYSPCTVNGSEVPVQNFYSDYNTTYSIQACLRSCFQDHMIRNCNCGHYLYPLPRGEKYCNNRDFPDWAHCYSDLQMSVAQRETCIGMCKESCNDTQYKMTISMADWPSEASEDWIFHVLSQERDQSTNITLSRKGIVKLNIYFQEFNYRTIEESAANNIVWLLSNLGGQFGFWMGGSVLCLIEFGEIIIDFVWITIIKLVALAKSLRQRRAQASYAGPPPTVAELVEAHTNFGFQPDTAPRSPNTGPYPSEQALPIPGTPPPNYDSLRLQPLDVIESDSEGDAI
T1 sequence (P51170 1-649): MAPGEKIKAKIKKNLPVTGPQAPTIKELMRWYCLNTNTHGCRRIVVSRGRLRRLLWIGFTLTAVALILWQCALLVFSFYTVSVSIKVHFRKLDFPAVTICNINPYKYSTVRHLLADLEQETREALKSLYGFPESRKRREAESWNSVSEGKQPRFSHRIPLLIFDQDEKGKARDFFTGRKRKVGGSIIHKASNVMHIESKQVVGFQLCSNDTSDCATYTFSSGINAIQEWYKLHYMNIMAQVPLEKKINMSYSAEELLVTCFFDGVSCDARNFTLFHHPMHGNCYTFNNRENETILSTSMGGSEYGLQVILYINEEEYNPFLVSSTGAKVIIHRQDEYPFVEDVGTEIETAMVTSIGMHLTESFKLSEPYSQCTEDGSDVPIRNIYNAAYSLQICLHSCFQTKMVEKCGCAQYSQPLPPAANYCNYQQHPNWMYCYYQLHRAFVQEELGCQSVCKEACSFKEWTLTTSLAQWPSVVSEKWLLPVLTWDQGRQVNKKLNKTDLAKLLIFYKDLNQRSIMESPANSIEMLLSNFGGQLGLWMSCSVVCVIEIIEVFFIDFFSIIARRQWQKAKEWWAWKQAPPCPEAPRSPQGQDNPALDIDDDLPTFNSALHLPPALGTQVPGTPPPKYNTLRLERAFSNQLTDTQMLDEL
Source text: Furthermore, a method common in laboratories is to detect the activation of ion channels by means of patch-clamp experiments, and this is described, for example, in Clunes M. T. et al, J Physiol Volume 557, No. 3, 809-819 (Jun. 15, 2004). For patch-clamp examinations of ion channels, a glass cannula is stretched thin and filled with a neutral buffer solution. The glass cannula (patch-clamp pipette) is carefully pressed onto an intact epithelial cell. A piece of membrane is located below the pipette. An electrical resistance is thereby produced between the interior of the pipette and the external solution. An electrode attached to a sensitive amplifier dips into the pipette solution.
The electrophysiological experiments were performed on human A549 cells (ATTC No. CCL-185). A549 cells are human lung epithelial cells which are involved in the diffusion of water and electrolytes in the lungs.
The cells were suspended in DMEM-F-12 medium with 1% penicillin-streptomycin and 10% fetal calf serum, transferred into plastic cell culture vessels and cultivated in the incubator with 95% air and 5% CO2 at 37° C. The medium was changed 2 to 3 times per week. The cells double within approx. 22 hours and a cell concentration of more than 7×10^4 cells per cm^2 was not exceeded.
Macroscopic currents and single-channel currents were discharged from A549 cells in the “whole cell” and “cell-attached” configuration of the “patch-clamp” technique (Hamill et al, Pflugers Arch. 1981, 391(2):85-100, 1981). For the current dissipations in the “whole cell” configuration, the following bath and electrode solutions were used:
Bath solution: 135 mM sodium methane sulfonate, 10 mM NaCl, 2.7 mM KCl, 1.8 mM CaCl2, 2 mM MgCl2, 5.5 mM glucose, and 10 mM HEPES, pH 7.4. […]
The cover slips with the cells cultivated thereon were transferred into a test bath with a capacity of 1 ml, fixed on the microscope table (Axiovert 100, 400-fold magnification), and the cells were superfused with the above-described bath solution. […] In the “cell-attached” configuration, the current can be measured through individual ion channels beneath the electrode tip. In the “whole cell” configuration, the membrane was penetrated beneath the electrode tip so that the current flowing through all ion channels of the cell could be measured. […] Upon obtaining a Gigaohm seal, a defined membrane retaining potential was applied via a pre-amplifier (CV-4 Headstage, Axon Instruments) and an amplifier (Axopatch 1D, Axon Instr.) and the current thereby flowing through the ion channels was measured.
The pulse protocol consisted of a hyperpolarization to −100 mV for 1 s at an interval of 5 s. […] The current dissipations thus obtained were stored and analyzed by means of the program PCLAMP 6.0. […]

For `C[C@@H]1NC(=O)CNC(=O)[C@H](CCC(=O)O)NC(=O)[C@@H]2CCCN2C(=O)[C@H]([C@@H](C)O)NC(=O)[C@H](CCC(=O)O)NC(=O)[C@H](CCCNC(=N)N)NC(=O)[C@H](CCC(N)=O)NC(=O)[C@@H](NC(=O)[C@@H]2CCCN2C(=O)[C@H](CO)NC(=O)[C@@H](N)CCCCN)CSSC[C@@H](C(=O)N2CCC[C@H]2C(=O)N[C@@H](CO)C(=O)O)NC(=O)CNC(=O)CNC(=O)[C@H](CCCCN)NC(=O)[C@H](C)NC(=O)[C@H](CCC(=O)O)NC1=O` [SEQ ID NO:2] (H-KSPCQRETPEGAEAKGGCPS-OH; disulfide 4-18), which “activation of the sodium ion channels (patch clamp)” value (“activation” for short) is on record?
Its value is “activation of the sodium ion channels”.

`C[C@@H]1NC(=O)CNC(=O)[C@H](CCC(=O)O)NC(=O)[C@@H]2CCCN2C(=O)[C@H]([C@@H](C)O)NC(=O)[C@H](CCC(=O)O)NC(=O)[C@H](CCCNC(=N)N)NC(=O)[C@H](CCC(N)=O)NC(=O)[C@@H](N)CSSC[C@@H](C(=O)O)NC(=O)CNC(=O)CNC(=O)[C@H](CCCCN)NC(=O)[C@H](C)NC(=O)[C@H](CCC(=O)O)NC1=O` [SEQ ID NO:3, (NH2)Cys-Gln-Arg-Glu-Thr-Pro-Glu-Gly-Ala-Glu-Ala-Lys-Gly-Gly-Cys(COOH)] (H-CQRETPEGAEAKGGC-OH; disulfide 1-15) was tested. Which “activation” value did it give?
The value was “activation of the sodium ion channels”.

For `CC[C@H](C)[C@H](NC(=O)[C@H](C)N)C(=O)N[C@@H](CCCCN)C(=O)N[C@@H](CO)C(=O)N1CCC[C@H]1C(=O)N[C@H]1CSSC[C@@H](C(=O)N2CCC[C@H]2C(=O)N[C@@H](CO)C(=O)N[C@H](C(=O)N[C@@H](Cc2c[nH]cn2)C(=O)N[C@H](C(=O)O)C(C)C)[C@@H](C)O)NC(=O)CNC(=O)CNC(=O)[C@H](CCCCN)NC(=O)[C@H](C)NC(=O)[C@H](CCC(=O)O)NC(=O)[C@H](C)NC(=O)CNC(=O)[C@H](CCC(=O)O)NC(=O)[C@@H]2CCCN2C(=O)[C@H]([C@@H](C)O)NC(=O)[C@H](CCC(=O)O)NC(=O)[C@H](CCCNC(=N)N)NC(=O)[C@H](CCC(N)=O)NC1=O` [SEQ ID NO:1] (H-AIKSPCQRETPEGAEAKGGCPSTHV-OH; disulfide 6-20), which “activation” value is on record?
The value was “activation of the sodium ion channels”.
